The nature of series [1]: In-vivo pharmacokinetic evaluation (exposure, AUC fold-over Example 1). The note with it: male CD-1 mice, 10 mg/kg oral gavage in 20% (2-Hydroxypropyl)-β-cyclodextrin, plasma at 0.5, 2 and 6 hours post-dose; AUC expressed as fold-over Example 1. The method, then: In-vivo exposure of test compounds was determined in 5-6 week old male CD-1 mice. Mice (n=2/compound) received 10 mg/kg of each compound formulated in 20% (2-Hydroxypropyl)-β-cyclodextrin (10 μL/g) by oral gavage. At 0.5 hours, 2 hours, and 6 hours post-dose, blood samples were collected from the submandibular vein using EDTA as an anticoagulant and stored on ice. Plasma samples were obtained by centrifugation at 4° C. and were analyzed immediately or stored at −20° C. until analysis. Compounds were extracted from mouse plasma with acetonitrile and quantified by LC-MS-MS in the negative ion mode using a standard curve.

In series [2] the target is recombinant full-length human hydroxyacid oxidase 1 (HAO1), the equivalents of hGOX (Homo sapiens (Human), UniProt Q9UJM8). Nature of the series: In-vitro human glycolate oxidase (hGOX) assay (Amplex red fluorescence). The format is biochemical. Conditions: 6 nM recombinant human GO, 85 μM glycolate, 10 min preincubation. In a few lines: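 Activity was read as Amplex Red fluorescence (560/590 nm), with 50 μM reagent added after a 10 min room-temperature incubation. The enzyme, full-length human HAO1, was in pH 7.4 HEPES buffer containing KCl, NaCl, MgCl2 and 0.01% Triton X-100.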
Sequence of recombinant full-length human hydroxyacid oxidase 1 (HAO1), the equivalents of hGOX (Q9UJM8 whole entry): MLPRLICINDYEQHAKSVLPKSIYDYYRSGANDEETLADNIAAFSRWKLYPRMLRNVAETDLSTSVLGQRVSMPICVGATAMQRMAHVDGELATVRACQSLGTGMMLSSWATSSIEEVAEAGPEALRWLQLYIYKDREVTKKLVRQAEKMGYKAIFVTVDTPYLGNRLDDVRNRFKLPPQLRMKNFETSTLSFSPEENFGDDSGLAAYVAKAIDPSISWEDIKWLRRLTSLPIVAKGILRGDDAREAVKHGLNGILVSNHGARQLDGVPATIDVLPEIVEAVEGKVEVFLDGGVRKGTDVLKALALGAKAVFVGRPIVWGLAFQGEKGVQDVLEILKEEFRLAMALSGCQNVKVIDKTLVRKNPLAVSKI

In the case of `O=C(O)c1nn[nH]c1Oc1ccc(C#CCC2CC2)cc1` [Example 301, 5-(4-(3-Cyclopropylprop-1-ynyl)phenoxy)-1H-1,2,3-triazole-4-carboxylic Acid], the “AUC Fold over Ex. 1” value in series [1] is listed as 0.7. Besides, the IC50 in series [2] was determined as 15 nM.

`O=C(O)c1nn[nH]c1Oc1cccc(C#CCC2CCCC2)c1` [Example 344, 5-(3-(3-Cyclopentylprop-1-ynyl)phenoxy)-1H-1,2,3-triazole-4-carboxylic Acid]: in series [1], the “AUC Fold over Ex. 1” value was determined as 1.9. Besides, the IC50 in series [2] is 4 nM.

Take `O=C(O)c1nn[nH]c1Oc1cccc(C#CC2CC2)c1` [Example 21, 5-(3-(2-Cyclopropylethynyl)phenoxy)-1H-1,2,3-triazole-4-carboxylic Acid]: the “AUC Fold over Ex. 1” value in series [1] stood at 2.5. Besides, in series [2], the IC50 worked out at 9 nM.

In the case of `O=C(O)c1nn[nH]c1Oc1cccc(C#Cc2cccc3cn[nH]c23)c1` [Example 324, 5-(3-(2-(1H-Indazol-7-yl)ethynyl)phenoxy)-1H-1,2,3-triazole-4-carboxylic Acid], in series [1], the “AUC Fold over Ex. 1” value is 1.7. Besides, the IC50 in series [2] came out at 4 nM.

Regarding `O=C(O)c1nn[nH]c1Oc1cccc(C#CCC2CCC2)c1` [Example 345, 5-(3-(3-Cyclobutylprop-1-ynyl)phenoxy)-1H-1,2,3-triazole-4-carboxylic Acid], the “AUC Fold over Ex. 1” value in series [1] turned out to be 2.6. For the same molecule, the IC50 in series [2] is 8 nM.

For `CC#Cc1cccc(Oc2[nH]nnc2C(=O)O)c1` [Example 6, 5-(3-(Prop-1-ynyl)phenoxy)-1H-1,2,3-triazole-4-carboxylic Acid], the “AUC Fold over Ex. 1” value in series [1] amounted to 0.8. Also, in series [2], the IC50 was found to be 7 nM.

For the molecule `CC(C)C#Cc1cccc(Oc2[nH]nnc2C(=O)O)c1` [Example 10, 5-(3-(3-Methylbut-1-ynyl)phenoxy)-1H-1,2,3-triazole-4-carboxylic Acid], in series [1], the “AUC Fold over Ex. 1” value worked out at 1.6. Moreover, in series [2], the IC50 was found to be 28 nM.

With `Cc1cccc(C#Cc2ccc(Oc3[nH]nnc3C(=O)O)cc2)n1` [Example 293, 5-(4-(2-(6-Methylpyridin-2-yl)ethynyl)phenoxy)-1H-1,2,3-triazole-4-carboxylic Acid], the “AUC Fold over Ex. 1” value in series [1] worked out at 0.1. The IC50 in series [2] is 5 nM.

As to `O=C(O)c1nn[nH]c1Oc1cccc(C#CC2CCOCC2)c1` [Example 41, 5-(3-(2-(Tetrahydro-2H-pyran-4-yl)ethynyl)phenoxy)-1H-1,2,3-triazole-4-carboxylic Acid], the “AUC Fold over Ex. 1” value in series [1] came to 0.1. In addition, the IC50 in series [2] worked out at 13 nM.

With `O=C(O)c1nn[nH]c1Oc1cccc(C#Cc2ccc3[nH]ncc3c2)c1` [Example 307, 5-(3-(2-(1H-Indazol-5-yl)ethynyl)phenoxy)-1H-1,2,3-triazole-4-carboxylic Acid], in series [1], the “AUC Fold over Ex. 1” value is recorded as 0.0. Further, in series [2], the IC50 was 1 nM.

`O=C(O)c1nn[nH]c1Oc1cccc(C#CCC2CCCCC2)c1` [Example 346, 5-(3-(3-Cyclohexylprop-1-ynyl)phenoxy)-1H-1,2,3-triazole-4-carboxylic Acid]: the “AUC Fold over Ex. 1” value in series [1] turned out to be 0.7. In series [2], the concentration for half-maximal inhibition (IC50) was found to be 3 nM.

As for `O=C(O)c1nn[nH]c1Oc1ccc(C#CCC(F)(F)F)cc1` [Example 305, 5-(4-(4,4,4-Trifluorobut-1-ynyl)phenoxy)-1H-1,2,3-triazole-4-carboxylic Acid], in series [1], the “AUC Fold over Ex. 1” value is recorded as 0.3. Also, the IC50 in series [2] was 18 nM.

Take `CC(C)(C)C#Cc1cccc(Oc2[nH]nnc2C(=O)O)c1` [Example 17, 5-(3-(3,3-Dimethylbut-1-ynyl)phenoxy)-1H-1,2,3-triazole-4-carboxylic Acid]: in series [1], the “AUC Fold over Ex. 1” value was 1.3. Moreover, the IC50 in series [2] was found to be 42 nM.

For `O=C(O)c1nn[nH]c1Oc1ccc(C#CC2CC2)cc1` [Example 20, 5-(4-(2-Cyclopropylethynyl)phenoxy)-1H-1,2,3-triazole-4-carboxylic Acid], the “AUC Fold over Ex. 1” value in series [1] is 0.8. In addition, the IC50 in series [2] came out at 11 nM.

Consider `O=C(O)c1nn[nH]c1Oc1ccc(C#CC2CCCC2)cc1` [Example 28, 5-(4-(2-Cyclopentylethynyl)phenoxy)-1H-1,2,3-triazole-4-carboxylic Acid], for which the “AUC Fold over Ex. 1” value in series [1] is 0.3. Also, in series [2], the IC50 amounted to 18 nM.

On to `COc1ccc(C#Cc2ccc(Oc3[nH]nnc3C(=O)O)cc2)cn1` [Example 282, 5-(4-(2-(6-Methoxypyridin-3-yl)ethynyl)phenoxy)-1H-1,2,3-triazole-4-carboxylic Acid], for which the “AUC Fold over Ex. 1” value in series [1] is on record as 0.5. Besides, the IC50 in series [2] worked out at 3 nM.

With `O=C(O)c1nn[nH]c1Oc1cccc(C#CCC(F)(F)F)c1` [Example 306, 5-(3-(4,4,4-Trifluorobut-1-ynyl)phenoxy)-1H-1,2,3-triazole-4-carboxylic Acid], the “AUC Fold over Ex. 1” value in series [1] came to 0.7. For the same molecule, the IC50 in series [2] amounted to 16 nM.

For `CCCC#Cc1cccc(Oc2[nH]nnc2C(=O)O)c1` [Example 300, 5-(3-(Pent-1-ynyl)phenoxy)-1H-1,2,3-triazole-4-carboxylic Acid], in series [1], the “AUC Fold over Ex. 1” value is given as 2.5. For the same molecule, the IC50 in series [2] stood at 9 nM.

On to `O=C(O)c1nn[nH]c1Oc1cccc(C#Cc2cccnc2)c1` [Example 312, 5-(3-(2-(Pyridin-3-yl)ethynyl)phenoxy)-1H-1,2,3-triazole-4-carboxylic Acid], for which the “AUC Fold over Ex. 1” value in series [1] worked out at 0.2. For the same molecule, the IC50 in series [2] came out at 3 nM.

On to `CCC#Cc1ccc(Oc2[nH]nnc2C(=O)O)cc1` [Example 303, 5-(4-(But-1-ynyl)phenoxy)-1H-1,2,3-triazole-4-carboxylic Acid], for which the “AUC Fold over Ex. 1” value in series [1] came to 1.5. Moreover, the IC50 in series [2] turned out to be 36 nM.

For the molecule `Cn1cc(C#Cc2cccc(Oc3[nH]nnc3C(=O)O)c2)cn1` [Example 221, 5-(3-(2-(1-Methyl-1H-pyrazol-4-yl)ethynyl)phenoxy)-1H-1,2,3-triazole-4-carboxylic Acid], in series [1], the “AUC Fold over Ex. 1” value was 0.1. Besides, in series [2], the IC50 was determined as 1 nM.

In the case of `CCCC#Cc1ccc(Oc2[nH]nnc2C(=O)O)cc1` [Example 299, 5-(4-(Pent-1-ynyl)phenoxy)-1H-1,2,3-triazole-4-carboxylic Acid], in series [1], the “AUC Fold over Ex. 1” value is given as 0.9. For the same molecule, the IC50 in series [2] was 15 nM.

Turning to `O=C(O)c1nn[nH]c1Oc1ccc(C#CC2CCC2)cc1` [Example 24, 5-(4-(2-Cyclobutylethynyl)phenoxy)-1H-1,2,3-triazole-4-carboxylic Acid], the “AUC Fold over Ex. 1” value in series [1] is on record as 0.3. In series [2], the IC50 turned out to be 16 nM.

For the molecule `CCC#Cc1cccc(Oc2[nH]nnc2C(=O)O)c1` [Example 304, 5-(3-(But-1-ynyl)phenoxy)-1H-1,2,3-triazole-4-carboxylic Acid], the “AUC Fold over Ex. 1” value in series [1] was found to be 1.6. In series [2], the IC50 stood at 12 nM.

For `CC(C)(C)C#Cc1ccc(Oc2[nH]nnc2C(=O)O)cc1` [Example 16, 5-(4-(3,3-Dimethylbut-1-ynyl)phenoxy)-1H-1,2,3-triazole-4-carboxylic Acid], in series [1], the “AUC Fold over Ex. 1” value came to 0.2. Also, in series [2], the IC50 came to 210 nM.

Take `O=C(O)c1nn[nH]c1Oc1cccc(C#Cc2nccs2)c1` [Example 342, 5-(3-(2-(Thiazol-2-yl)ethynyl)phenoxy)-1H-1,2,3-triazole-4-carboxylic Acid]: the “AUC Fold over Ex. 1” value in series [1] is 0.4. For the same molecule, the IC50 in series [2] amounted to 2 nM.

`O=C(O)c1nn[nH]c1Oc1ccc(C#CC2CCOCC2)cc1` [Example 40, 5-(4-(2-(Tetrahydro-2H-pyran-4-yl)ethynyl)phenoxy)-1H-1,2,3-triazole-4-carboxylic Acid]: the concentration for half-maximal inhibition (IC50) in series [2] turned out to be 40 nM.

On to `CCOC(=O)c1nn[nH]c1Oc1cccc(C#CCC(C)(C)F)c1` [Example 377, Ethyl 5-(3-(4-fluoro-4-methylpent-1-ynyl)phenoxy)-1H-1,2,3-triazole-4-carboxylate], for which, in series [2], the half-inhibitory concentration (IC50) is greater than 1000 nM.

As for `O=C(O)c1nn[nH]c1Oc1ccc(C#Cc2ncc[nH]2)cc1` [Example 331, 5-(4-(2-(1H-Imidazol-2-yl)ethynyl)phenoxy)-1H-1,2,3-triazole-4-carboxylic Acid], the IC50 in series [2] was 20 nM.

As to `O=C(O)c1nn[nH]c1Oc1ccc(C#Cc2cccc3cn[nH]c23)cc1` [Example 323, 5-(4-(2-(1H-Indazol-7-yl)ethynyl)phenoxy)-1H-1,2,3-triazole-4-carboxylic Acid], in series [2], the IC50 turned out to be 5 nM.

Regarding `N#Cc1cccc(C#Cc2cc(F)cc(Oc3[nH]nnc3C(=O)O)c2)c1` [Example 277, 4-(3-((3-Cyanophenyl)ethynyl)-5-fluorophenoxy)-1H-1,2,3-triazole-5-carboxylic Acid], in series [2], the IC50 amounted to 2 nM.

As to `CC(C)(O)C#Cc1ccc(Oc2[nH]nnc2C(=O)O)cc1` [Example 13, 5-(4-(3-Hydroxy-3-methylbut-1-ynyl)phenoxy)-1H-1,2,3-triazole-4-carboxylic Acid], the IC50 in series [2] is 440 nM.

For `O=C(O)c1nn[nH]c1Oc1cccc(C#Cc2cccc(F)c2)c1` [Example 279, 5-(3-(2-(3-Fluorophenyl)ethynyl)phenoxy)-1H-1,2,3-triazole-4-carboxylic Acid], the IC50 in series [2] is 2 nM.

Turning to `O=C(O)c1nn[nH]c1Oc1ccc(C#Cc2ccccc2)cc1` [Example 138, 5-(4-(2-Phenylethynyl)phenoxy)-1H-1,2,3-triazole-4-carboxylic Acid], the IC50 in series [2] amounted to 7 nM.

With `CCOC(=O)c1c(Oc2cccc(C#CCC3CC3)c2)n[nH]c1C` [Example 358, Ethyl 3-(3-(3-cyclopropylprop-1-ynyl)phenoxy)-5-methyl-1H-pyrazole-4-carboxylate], the IC50 in series [2] was greater than 1000 nM.

The IC50 is the point on the concentration scale where inhibition reaches its midpoint.

These data come from patent US11504367B2, “Compounds and methods for treating oxalate-related diseases” (OxaluRx, Inc., priority 2019, dated 2022).
